The text below walks through data of patent US10344002B2, “Compositions and methods for treating metabolic disorders” (NuSirt Sciences, Inc., priority 2016, dated 2019).

For assay [1], the system named is HepG2 liver cells. Conditions: same system, metformin alone; cited from earlier work.
The subject of assay [2] is C2C12 muscle cells. The following applies: same system, metformin alone; cited from earlier work.
Assay [3] deals with C2C12 muscle cells. As to the kind of experiment: Fatty acid oxidation (oxygen consumption rate, Seahorse XF-24) in C2C12 muscle cells. The format is cell-based. Conditions: same system. The protocol:
Cell Culture: C2C12 muscle cells were seeded with 40,000 cells per well on Seahorse tissue culture plates in Dulbecco's modified eagle's medium (DMEM) containing 10% fetal bovine serum (FBS) and antibiotics (1% penicillin-streptomycin) at 37° C. in 5% CO2. After reaching confluency (24 hours), cells were induced to differentiate with DMEM containing 2% Horse Serum for 3 to 4 days until myotubes were fully formed. Cells were then treated with indicated concentration of Compound 2 for 24 hours.
(§1) Compound 2 was dissolved in 100% DMSO to a stock concentration of 100 mM. This stock was further diluted to indicated concentrations in DMEM media.
Fatty acid oxidation: Baseline and palmitate-stimulated oxygen consumption rates were measured with XF-24 analyzer (Seahorse Bioscience (now part of Agilent Technologies), MA, USA). After 24 hour treatment with Compound 2 of differentiated C2C12 muscle cells, cells were washed twice with non-buffered carbonate-free pH 7.4 low glucose (2.5 mM) DMEM containing carnitine (0.5 mM), equilibrated with 600 μl of the same media in a non-CO2 incubator for 45 minutes, and then inserted into the instrument for 15 minutes of further equilibration, followed by O2 consumption measurement. Three successive baseline measures at five-minute intervals were taken prior to injection of palmitate (200 μM final concentration). Sets of three five-minute intervals followed by 10-minute time delay were continued over a 2 to 3 hour period after palmitate injection. The area under the curve of 02 consumption change from baseline for each sample was then calculated and used for subsequent analysis. Data are represented as mean±SD for each treatment group.

In assay [4] the test system is HepG2 liver cells. As to the kind of experiment: Lipid accumulation (Oil Red Staining) in HepG2 liver cells induced with high glucose plus insulin. The format is cell-based. Conditions: same system. The protocol: Cell Culture: HepG2 liver cells were seeded with 80,000 cells per well on 24-well tissue culture plates in low glucose (5 mM) DMEM containing 10% FBS and antibiotics. After 24 hours of attachment, lipid accumulation was induced by incubating cells with high glucose (25 mM) DMEM (10% FBS, 1% Pen-Strep) plus 100 nM insulin for 48 hours. Cells were then treated with indicated concentrations of Compound 2 for an additional 48 hours.
as §1
Lipid accumulation (Oil Red Staining): HepG2 liver cells were seeded and treated as described above. After 48 hours of treatment with Compound 2, lipid accumulation in HepG2 was measured via Oil Red Staining. Cells were washed with phosphate buffered saline (PBS) once, then cells were fixated with 10% formalin for 1 hour. After removal of the formalin, cells were washed with ddH2O twice, then washed with 60% isopropanol. Cells were dried completely. Cells were stained with Oil Red working solution (˜5 mM) for 25 minutes, then immediately washed with ddH2O four times, then dried completely again. Oil Red dye was eluted with 100% isopropanol and absorbance was read at 500 nm. Unstained cells plus isopropanol was used as a blank and subtracted from all readings. Data are represented as mean±SEM for each treatment group.

Regarding `CN(C)C(=N)NC(=N)N` [metformin, Metformin, reference compound], the “concentration below which hepatic lipids are not reduced” value in assay [1] was at least 1 mM. In addition, in assay [2], the “concentration below which fat oxidation is not stimulated” value is at least 1 mM. The “fold higher concentration (in comparison with Compound 2) for fat oxidation” value in assay [3] is given as 100,000 fold. In addition, in assay [4], the “fold higher concentration (in comparison with Compound 2) for reducing hepatic lipids” value is on record as 100,000 fold.
